In general, melting point refers to the temperature, or range, at which the solid turns liquid.

Molecules are shown by their SMILES. Residues, ends and D or L forms follow the SMILES beside them. A value given as a limit tells only on which side of the number the result lay.

The values that follow come from a melting point compilation (Tetko et al.; mined from patent text by program, amines drawn as free bases though some values may be those of a salt).

In turn, `CCCCn1nc2c(N)nc3ccccc3c2c1CCS(=O)(=O)CCC` registered a melting point of 169 to 171 °C.

Consider `CC(NC(=O)C(N)Cc1ccccc1)C(=O)NCC(=O)NC(Cc1ccccc1)C(=O)NCC(=O)NC(CCCNC(=N)N)C(=O)O` (stereo unspecified) (H-FAGFGR-OH; configuration not given here), for which the melting point fell in the range of 154 to 156 °C. Compound `Cc1cnc2c(c1)C(=O)N(C(C)C)C2=O` came in with a melting point of 127 to 128 °C. The same measure for `CC(C)(C)c1ccc(C(=O)Nc2cn3nc(-n4cnc(CO)c4)ccc3n2)cc1`: 298 to 301 °C; for `COc1cc2c(ccn2S(C)(=O)=O)cc1Br`: 126 to 129 °C. The compound `CC(C)(C)c1nc(-c2ccc3c(c2)OCO3)[nH]c1C(C)(C)C` came in with a melting point of 175 to 178 °C. The same measure for `COC(=O)C(c1ccc(O)cc1)N1CC(NC(=O)Cc2ccccc2)C1=O` (stereo unspecified): 172 to 175 °C; for `CCOC12CC(C)(C)C(O1)C(OC(=O)c1ccc(N)cc1)C=C2C` (stereo unspecified): 130 to 132 °C; for `Cc1ccc(Cl)c(-c2nn(C(C)(C)C(=O)N(C)C)cc2C)c1`: 106 to 108 °C. As for `O=S(=O)(NCC1CCN(C[C@H]2COc3ccc(Cl)cc3O2)CC1)c1ccc(Cl)cc1`, the melting point was in the range of 152 to 154 °C. `Nc1ncc(Br)nc1-c1ccccc1Cl` came in with a melting point of 138 to 140 °C. In the case of `N#Cc1ccc(NS(=O)(=O)c2ccc(Cl)cc2)c([N+](=O)[O-])c1` it was 193 to 195 °C; in that of `CN(CCc1ccccc1)S(=O)(=O)CC(=O)NO`, 149 to 151 °C. In the case of `CCOC(=O)C(CBr)=C1C(=N)CCCC1=O` it was 170 to 175 °C. The same measure for `CC(C)(C)OC(=O)n1cccc1-c1ccc2c(c1)C(C)(C)OC(=O)N2`: 172 to 173 °C; for `O=C(O)c1cc2cccnc2[nH]1`: greater than 260 °C. Turning to `CC(C)NC(=O)n1nc(N(C)C)n(C)c1=O`, the melting point was in the range of 36 to 38 °C. The compound `CC1Oc2cc(F)c(N)cc2NC1=O` (stereo unspecified) gave a melting point of 208 to 211 °C.

Compound `CCCCCC(=O)n1c(N)nc2ccccc21` yielded a melting point of 200 °C. The same measure for `O=C1CCC(CCO)(c2ccc(F)c(F)c2)CN1Cc1cc(C(F)(F)F)cc(C(F)(F)F)c1` (stereo unspecified): 120 °C. With `CCC(CC)Nc1c([N+](=O)[O-])cc(C)c(CO)c1[N+](=O)[O-]`, the melting point was in the range of 51 to 54 °C. `CC1CC2=C(CCC(O)C2)C2CCC3(C)C(CO)CCC3C12` (stereo unspecified) yielded a melting point of 64 to 70 °C. In turn, `COc1ccccc1-c1ccc(Cl)c2c1S(=O)(=O)NC(C1CCCCC1)=N2` gave a melting point of 100 to 105 °C. Regarding `CCNc1nc2c(N)nc(C)c(C)c2n1CC(C)C`, the melting point lay within 168 to 170 °C. On to `CCc1cc([N+](=O)[O-])c(=O)[nH]c1COCc1ccccc1`, for which the melting point fell in the range of 157 to 158 °C. `COc1ccc([N+](=O)[O-])cc1C(=O)NCc1ccc(C(F)(F)F)cc1` came in with a melting point of 108 to 109 °C. In turn, `O=C1c2ccccc2C(O)(c2ccccc2)N1CCc1ccccc1F` (stereo unspecified) showed a melting point of 208 °C.

In the case of `CCCc1nc2c(N)nc3cccnc3c2n1CCCCN(OC)C(=O)c1ccccc1`, the melting point was in the range of 125 to 127 °C. As to `CCOC(=O)/C=C/c1ccc(OCCCS(C)(=O)=O)cc1Oc1ncc(C(F)(F)F)cc1Cl`, the melting point was 191 °C. For the compound `COc1ccc2c(-c3ccc(Cl)cc3)noc2c1`, the melting point lay in the range of 148 to 149 °C.

As to `CC(=O)Nc1nc2c(Oc3cc(-c4ccc(C(F)(F)F)cc4)c(-c4ccc(F)cc4)cn3)cccc2s1`, the melting point is 112 to 130 °C. In turn, `N#Cc1cn(C2CC(O)C(CO)O2)c(=O)[nH]c1=O` (stereo unspecified) came in with a melting point of 161 °C. For `O=C1NC(=O)C(c2ccccc2Cl)C1SC1=NCCS1` (stereo unspecified), the melting point is 195 to 200 °C. In turn, `CON1C(=O)CC2(CCN(C(=O)CCN3C=CCC(C(N)=O)=C3)CC2)C1=O` showed a melting point of 64 to 80 °C. On to `O=c1[nH]c2ccc(Br)cc2c(=O)n1CCCS`, for which the melting point was 220 to 221 °C.

The compound `C=CCc1cccc(CC(NC(C)=O)C(=O)OCc2ccccc2)c1` (stereo unspecified) came in with a melting point of 55 to 56.5 °C. As to `CC(=O)C1=CCC2C3CCC4=CC(=O)CCC4(C)C3(F)C(=O)CC12C` (stereo unspecified), the melting point was in the range of 208 to 211 °C.

For `CC1(C(=O)C2(C)COCOC2)COCOC1`, the melting point fell in the range of 100 to 102 °C.

`COCCNc1nccc(-c2ccnc(Nc3cccc(Cl)c3)n2)c1Cl`: the melting point amounted to 172 °C. Compound `O=C(Oc1ccccc1N1c2ccccc2Sc2ccccc21)c1ccccc1` gave a melting point of 144 to 148 °C.

Compound `CC(C)(C)CN1C(=O)[C@@H](CCO)O[C@H](c2ccccc2Cl)c2cc(Cl)ccc21` (relative stereo) showed a melting point of 157 to 159 °C. As for `CN(C)Cc1cccc(OCCCNC(=O)COC(=O)c2ccc(Cl)c(Cl)c2)c1`, the melting point was 48 to 50 °C.

With `CC12CCC3c4ccc(C(=O)O)cc4CCC3C1CCC2C(=O)CCc1ccccc1` (stereo unspecified), the melting point was 181 to 183 °C. Consider `Cc1cccc(-c2ccc3ccc(NC(=O)c4cccc(Br)c4)nc3n2)c1`, for which the melting point came to 100 °C. `O=C1N(c2cccc(C(F)(F)F)c2)CC(CCl)C1(Cl)Cl` (stereo unspecified) displayed a melting point of 87 to 100 °C. `CCOC(=O)Cc1cc(Br)c(C(=O)c2ccc(C)cc2)n1C` showed a melting point of 85 to 87 °C. As for `NS(=O)(=O)c1ccc(N2CC(CO)OC2=O)cc1` (stereo unspecified), the melting point is 154 to 156 °C. As for `Cc1ccc(S(=O)(=O)NCCC2CCC(CC(=O)O)CC2)cc1` (stereo unspecified), the melting point lay within 104 to 105 °C.

`COc1ccc(Cc2cc(I)ccc2OC)cn1` showed a melting point of 68 to 70 °C. Consider `CCOc1ncccc1OCC1(c2onc(-c3ccc(O)cc3)c2-c2ccccc2)CC1`, for which the melting point fell in the range of 190 to 192 °C.

Take `O=C(CCCCCCOc1ccc(OCc2ccccc2)cc1)c1nnc(COCc2ccccc2)o1`: the melting point was 95 to 97 °C. In the case of `Cn1c2ccccc2c(=NN=C2NCCS2)c2c(Cl)cccc21`, the melting point lay within 206 to 207 °C.

Consider `COc1ccc2c(c1)C(N)=NCC2`, for which the melting point fell in the range of 114 to 118 °C. `Cc1nnc(C(CCN2CC3CC4CC(C3)CC2C4)(c2ccccc2)c2ccccc2)o1`: the melting point lay in the range of 120 to 121 °C.

`COc1cc(N)c(Cl)cc1C(=O)N[C@H]1CCN(C2CCC3(CC2)OCC(C)(C)CO3)C[C@H]1OC` (relative stereo) displayed a melting point of 188 °C.

With `CC1=C(C(=O)OC(C)C)C(c2ccccc2F)c2c[nH]nc2N1` (stereo unspecified), the melting point was in the range of 218 to 220 °C.

Take `COc1cccc(C2CCCN(C(=O)Cc3cc4ccccc4o3)C2)c1` (stereo unspecified): the melting point is 175 to 176 °C.

Compound `CN1CCN(c2cccc(-c3cnn4c(N)c(-c5ccccc5Cl)cnc34)c2)CC1` yielded a melting point of 200 to 203 °C. `COC(=O)C1=NNC(C)=C(C(=O)OC)C1c1cc([N+](=O)[O-])ccc1Cl` (stereo unspecified) yielded a melting point of 193 to 194 °C. Compound `Cc1oc2c(C)cc(C=O)cc2c1C` registered a melting point of 57 to 58 °C.

`CSc1nc2c(F)cccc2s1` came in with a melting point of 30 °C. With `CN(CC(O)c1ccc2[nH]c(=O)[nH]c2c1)C1CCC(c2ccccc2)CC1` (stereo unspecified), the melting point was 238 to 239 °C.

In turn, `COc1ccc(Cn2cnc3c(-c4ccco4)nc(OC(C)C)nc32)cc1` had a melting point of 145 to 146 °C. For the compound `Cc1ccc(Sc2ccc(C(=O)O)cc2)cc1`, the melting point was in the range of 105 to 107 °C.

For the compound `C=C(Cn1cncn1)Cn1cncn1`, the melting point was determined as 52 °C. In the case of `CCOC(=O)Cc1ccc2c(c1)C(=O)c1ccccc1CN2` it was 98 to 100 °C; in that of `Cc1nc(-c2cnc(Cc3ccccc3)o2)sc1C(=O)NCc1ccccc1`, 141 to 142 °C; in that of `CCCCCCCCc1cc(C=O)co1`, 25 °C.

The compound `FC(F)(F)c1ccc2nnc(-c3c(Cl)cccc3Cl)n2c1` registered a melting point of 104 to 105 °C. In turn, `COC(=O)C1N=c2c(ccc3c2=CC=N3)O1` (stereo unspecified) returned a melting point of 207 to 208 °C. As for `O=c1c2cccnc2c(-c2cccc(Cl)c2)cn1Cc1ccncc1`, the melting point was in the range of 170 to 172 °C. In the case of `CCNC(=O)c1ccccc1N(C)C(C)(C)C` it was 45 to 48 °C.

For `CC1Cc2ccc(Cl)cc2C(c2ccc([N+](=O)[O-])cc2)=NN1C(=O)C(F)(F)F` (stereo unspecified), the melting point was 150 to 152 °C. The same measure for `CC(=O)c1ccc(CCNS(=O)(=O)c2ccc(F)cc2)cc1`: 106 to 107 °C; for `COc1cc(C(=O)O)ccc1C(C)c1c[nH]c2ccc(C(=O)NCCC(C)C)cc12` (stereo unspecified): 190 to 191 °C. For `C=CCN(CC=C)C(=O)Nc1cc(C)c(S(=O)(=O)C[N+](=O)[O-])c(C)c1`, the melting point lay within 127 to 129 °C.

As for `O=C(O)C1CCCN1C(=O)COc1ccccc1` (stereo unspecified), the melting point is 109 to 111 °C. On to `CC(=O)OCCn1cnc2c(Cl)nc(Nc3ccccc3)nc21`, for which the melting point lay within 193 to 194 °C. With `Nc1cc(=O)n(Cc2ccc(Br)c(Cl)c2)[nH]1`, the melting point was in the range of 145 to 146 °C. Take `Nc1nc2ccccc2n[n+]1[O-]`: the melting point was 266 to 268 °C. The compound `CCOc1ccc(NS(=O)(=O)c2ccc(NN=CCCCN3C(=O)c4ccccc4C3=O)cc2)cc1` yielded a melting point of 156 to 158 °C.

The compound `COc1cccc(Nc2ccnc(Nc3cc(C)c(OC)c(OC)c3)n2)c1` yielded a melting point of 66 to 68 °C. In turn, `COc1cc(CCCC2OC(=O)NC2=O)ccc1OCc1csc(/C=C/c2ccccc2)n1` (stereo unspecified) returned a melting point of 202 to 203 °C. Compound `CCOC(=O)CCCn1cc(-c2cccnc2)c2cc([N+](=O)[O-])ccc21` registered a melting point of 76 to 78 °C.

In turn, `CNc1nc(C)c(C(=O)c2sc(NC)nc2C)s1` registered a melting point of 184 to 185 °C. The compound `Nc1nc(Oc2ccccc2)c2ncn(CCC(CO)CO)c2n1` returned a melting point of 173 to 175 °C. For the compound `CC(C)=CCN(CC=C(C)C)Cc1noc(-c2ncn3c2[C@@H]2CCN2C(=O)c2ccccc2-3)n1`, the melting point fell in the range of 119 to 122 °C. The compound `COC(=O)Cc1ccccc1OCc1cc(OCCc2nc(-c3ccccc3)sc2C)no1` had a melting point of 80 to 81 °C. In turn, `COc1cc2c(cc1Nc1ncc3ccc(-c4ccccc4OC)n3n1)CN(C)C2` gave a melting point of 136 to 141 °C.

As for `O=C(O)c1c(NCc2ccccc2)nc2ccc(Br)cc2c1Cl`, the melting point fell in the range of 182 to 184 °C. The compound `COc1ccc2c(c1OC)CCC(NC(C)=O)C2O` (stereo unspecified) had a melting point of 184 to 186 °C.
